The text below walks through data of patent US20230108270A1, “STABILIZATION OF COMPOUNDS AS CYCLODEXTRIN COMPLEXES” (University of Pittsburgh - Of the Commonwealth System of …, priority 2020, published 2023).

The data set in a line: Stability of NO2-OA/β-cyclodextrin inclusion complex resuspended in water. Format: physicochemical. On the procedure:
An important consideration when working with nitroalkene fatty acids is their high sensitivity to water or humidity. […] Stability was compared with the total amount added to the aqueous solution.
These stability assays were performed at room temperature and data was similar between the two tested concentrations of 0.31 mg/ml and 1.95 mg/ml. […] A new equilibrium is rapidly achieved and the sample is stable after this initial decay.

Consider `CCCCCCCCC(=CCCCCCCCC(=O)O)[N+](=O)[O-]` [NO2-OA, 10-nitro-octadec-9-enoic acid], for which the “time to complete decomposition of NO2-OA in water” value (NO2-OA added to water without cyclodextrin) was at most 4 h. The “time to loss of 10-NO2-OA in solution” value (same molar amount of 10-NO2-OA added to water) is listed as at most 4 hrs.
